Measured values: patent publication US20200345021A1, “METHOD AND SYSTEM FOR ENHANCING THE EFFICACY USING IONIZED/A[…] PEROXIDE IN REDUCING MICROBIAL POPULATIONS, METHOD OF USE THEREOF” (priority 2019, published 2020)
Several values for one entry are separate records, joined by “and”; a condition that tells them apart may be missing. Identical values can stand only once. Like-named read-outs stand apart in the source and are kept apart here. Marks after values point to notes of the source that are not given here.

How the values were obtained:
[1] = system: E. coli O157:H7
[2] = Excerpt: Specifically, a scanning mobility particle sizer (SMPS Model 3080, TSI inc., Shoreview, Minn., USA) and an aerodynamic particle sizer (APS Model 3321, TSI Inc.) were connected to the treatment chamber through an access port in the back of the treatment chamber to measure droplet sizes ranging from 2.5 to 210 nm, and from 0.5 to 20 μm, respectively.
[3] = system: S. Typhimurium; settings: for Populations of S. Typhimurium, treated / Reductions of S. Typhimurium: with cold plasma
Excerpt: To minimize the risk of possible bacteria becoming airborne during treatments, attenuated and non-pathogenic bacteria were used in the study. Two strains of non-pathogenic S. Typhimurium (ATCC 53647 and 53648) and three strains of L. innocua (ATCC 33090, ATCC 51742 and ATCC BAA680) were obtained from American Type Culture Collection (ATCC) (Manassas, Va., USA). Further studies used E. coli O157:H7 (ATCC 700728), S. Typhimurium (ATCC 53647 and 53648), and L. innocua (ATCC 33090) obtained from American Type Culture Collection (ATCC) (Manassas, Va., USA) and maintained as a part of the culture collection at the USDA Eastern Regional Research Center (Wyndmoor, Pa. USA). The bacteria were made to be resistant to nalidixic acid by successive growth in Trypic Soy Broth (TSB) (Difco, Sparks, Md., USA) with increasing nalidixic acid concentrations. All strains were stored at −80° C. in 1 mL of TSB containing 10% glycerol. Working cultures of S. Typhimurium and L. innocua were maintained in 9 mL TSB (supplemented with 100 μg/mL nalidixic acid for S. Typhimurium) at 4° C. after incubating at 37° C. for […], respectively, and sub-cultured each time.
Each strain of S. Typhimurium and L. innocua was cultured in 9 mL TSB (supplemented with 100 μg/mL nalidixic acid for S. Typhimurium) and incubated at 37° C. for 40 h and 48 h, respectively, harvested by centrifugation at 4000×g for 10 min at 4° C., and resuspended in 9 mL sterile Buffered Peptone Water (BPW; Difco). The pellets were resuspended in BPW to form cell suspensions with a final concentration of 108˜10^9 CFU/mL. Subsequently, suspended pellets of two strains of Salmonella and three strains of L. innocua were combined to obtain two separate culture cocktails.
Grape tomatoes, granny smith apples, romaine lettuce and cantaloupes were purchased from local markets (Philadelphia, Pa., USA) and kept at 10° C. prior to use. Fruits and vegetables were removed from 10° C. refrigeration and equilibrated to ambient temperature before being inoculated. Romaine lettuce was divided into upper green leaf and midrib tissues. Six tomatoes, six pieces (2×2 cm) of apple skins, five pieces (3×3 cm) of Romaine lettuce upper leaves, five pieces (3 cm length) of Romaine lettuce midrib area and six pieces (2×2 cm) of cantaloupe rinds with 2×3 mm thickness of flesh were used for each treatment per replicate. Bach piece w as spot inoculated with 10 μL of Salmonella and L. innocua by depositing droplets with a micropipette. The inoculated samples were dried in a bio-hood for 1 h (for tomato surfaces, romaine lettuce, apple skins and cantaloupe rinds) or 2 h (for tomato stem scars) at ambient temperature.
Produce items were placed onto a sterile test tube rack with the inoculated area facing up and the rack with produce pieces were placed inside of a treatment chamber (12×12×24 inch).
For tomato surfaces and apple skins, the treatment times (spray times) were set as 5, 8 and 10 s followed by 30 min dwell time. For upper leaves and midrib tissues of Romaine lettuce, the treatment times were 10, 20, 30 and 60 s followed by 30 min dwell time. For cantaloupe rinds, the treatment times were set as 10, 30 and 60 s followed by 30 min dwell time. For tomato stem scars, the treatment procedure included 5.8, 10, 20, 30, 60 s followed by 30 min dwell time, 6 cycles composed of 10 s treatment time followed by 10 min dwell time per cycle, and 3 cycles composed of 20 s treatment time followed by 20 min dwell time per cycle. A fan (E.Z.FAN, FP-108-1, Common Wealth Industrial Corp., Taiwan) was used in the chamber to facilitate the uniform distribution of mist during dwell time.
After each treatment, the tomato stem scars and surfaces with the inoculated bacteria were removed using a pair of sterile scissors.

[4] = treatment chamber, immediately after introduction
[5] = Granny Smith apple skins, treatment time 5 s + 30 min dwell
[6] = Romaine lettuce leaves (upper leaf), treatment time 10 s + 30 min dwell
[7] = Romaine lettuce leaves (upper leaf), treatment time 20 s + 30 min dwell
[8] = Romaine lettuce leaves (upper leaf), treatment time 60 s + 30 min dwell
[9] = Romaine lettuce midrib area, treatment time 10 s + 30 min dwell
[10] = Romaine lettuce midrib area, treatment time 20 s + 30 min dwell
[11] = Romaine lettuce midrib area, treatment time 60 s + 30 min dwell
[12] = cantaloupe rinds, treatment time 10 s + 30 min dwell
[13] = cantaloupe rinds, treatment time 60 s + 30 min dwell
[14] = grape tomato stem scars, 10s × 6 (6 cycles of 10 s spray time followed by 10 min dwell time)
[15] = grape tomato stem scars, treatment time 8 s + 30 min dwell
[16] = grape tomato stem scars, treatment time 10 s + 30 min dwell
[17] = grape tomato stem scars, treatment time 20 s + 30 min dwell
[18] = grape tomato stem scars, treatment time 30 s + 30 min dwell
[19] = grape tomato surfaces, treatment time 5 s + 30 min dwell

## OO [H2O2, hydrogen peroxide]
[1]
  Reduction of E. coli populations: 1.5 log
[2]; after 30 min (end of treatment)
  Nanosize droplets remained in the treatment chamber: about 8%
[2]; micrometer range, immediately after introduction
  Share of droplets in the range of <5 μm: About 80%
[2]; [4]
  Mean diameter of droplets in the micrometer range: 3.0 μm
  Mean diameter of nanosize droplets: 40.3 nm
  Mode (peak) of nanosize droplets: 33.4 nm
  Mode of droplets in the micrometer range: 4.0 μm
  Total number of droplets in micrometer range (0.5-20 μm): 4390 #/cc
  Total number of droplets in the nanosize range: 84,000 #/cc
[3]; [5]
  Populations of S. Typhimurium, treated: 4.09 ± 0.13^a log CFU/piece
  Reductions of S. Typhimurium: 1.63 ± 0.35^b log CFU/piece
[3]; Granny Smith apple skins, treatment time 8 s + 30 min dwell, ND: not detectable (detection limit 0.70 log CFU/piece)
  Populations of S. Typhimurium, treated: < 0.70 log CFU/piece
[3]; Granny Smith apple skins, treatment time 8 s + 30 min dwell, listed as hydrogen peroxide (H2O2) with cold plasma
  Reductions of S. Typhimurium: more than 5 log CFU/piece
[3]; Granny Smith apple skins, treatment time 8 s + 30 min dwell, listed as ionized hydrogen peroxide
  Reductions of S. Typhimurium: > 5 log CFU/piece
[3]; [6]
  Populations of S. Typhimurium, treated: 5.45 ± 0.34^a log CFU/piece
  Reductions of S. Typhimurium: 0.79 ± 0.16^c log CFU/piece
[3]; [7]
  Populations of S. Typhimurium, treated: 3.98 ± 0.37^b log CFU/piece
  Reductions of S. Typhimurium: 1.98 ± 0.24^b log CFU/piece
[3]; Romaine lettuce leaves (upper leaf), treatment time 30 s + 30 min dwell
  Populations of S. Typhimurium, treated: 3.54 ± 0.11^b log CFU/piece
[3]; Romaine lettuce leaves (upper leaf), treatment time 30 s + 30 min dwell, listed as ionized hydrogen peroxide
  Reductions of S. Typhimurium: 2.86 log CFU/piece and 2.86 ± 0.17^a log CFU/piece
[3]; [8]
  Populations of S. Typhimurium, treated: 3.57 ± 0.25^b log CFU/piece
  Reductions of S. Typhimurium: 2.79 ± 0.20^a log CFU/piece
[3]; [9]
  Populations of S. Typhimurium, treated: 4.81 ± 0.22^a log CFU/piece
  Reductions of S. Typhimurium: 1.53 ± 0.23^c log CFU/piece
[3]; [10]
  Populations of S. Typhimurium, treated: 4.09 ± 0.25^b log CFU/piece
  Reductions of S. Typhimurium: 2.04 ± 0.33^b log CFU/piece
[3]; Romaine lettuce midrib area, treatment time 30 s + 30 min dwell
  Populations of S. Typhimurium, treated: 2.54 ± 0.32^c log CFU/piece
[3]; Romaine lettuce midrib area, treatment time 30 s + 30 min dwell, listed as ionized hydrogen peroxide
  Reductions of S. Typhimurium: 3.63 log CFU/piece and 3.63 ± 0.21^a log CFU/piece
[3]; [11]
  Populations of S. Typhimurium, treated: 2.94 ± 0.18^c log CFU/piece
  Reductions of S. Typhimurium: 3.13 ± 0.48^a log CFU/piece
[3]; [12]
  Populations of S. Typhimurium, treated: 4.39 ± 0.32^a log CFU/piece
  Reductions of S. Typhimurium: 1.50 ± 0.21^b log CFU/piece
[3]; cantaloupe rinds, treatment time 30 s + 30 min dwell
  Populations of S. Typhimurium, treated: 4.09 ± 0.24^a log CFU/piece
[3]; cantaloupe rinds, treatment time 30 s + 30 min dwell, listed as ionized hydrogen peroxide
  Reductions of S. Typhimurium: 2.48 log CFU/piece and 2.48 ± 0.68^a log CFU/piece
[3]; [13]
  Populations of S. Typhimurium, treated: 3.23 ± 0.28^b log CFU/piece
  Reductions of S. Typhimurium: 2.44 ± 0.32^a log CFU/piece
[3]; [14]
  Populations of S. Typhimurium, treated: 3.89 ± 0.39^ab log CFU/piece
  Reductions of S. Typhimurium: 2.19 ± 0.41^b log CFU/piece
[3]; grape tomato stem scars, listed as printed 20s × 6 (title: 20s×3, 3 cycles of 20 s spray time with 20 min dwell time)
  Populations of S. Typhimurium, treated: 3.60 ± 0.42^b log CFU/piece
[3]; grape tomato stem scars, listed as printed 20s × 6 (title: 20s×3, 3 cycles of 20 s spray time with 20 min dwell time), listed as ionized hydrogen peroxide
  Reductions of S. Typhimurium: 2.73 log CFU/piece and 2.73 ± 0.28^a log CFU/piece
[3]; grape tomato stem scars, treatment time 5 s + 30 min dwell
  Populations of S. Typhimurium, treated: 4.26 ± 0.89^ab log CFU/piece
[3]; grape tomato stem scars, treatment time 5 s + 30 min dwell, listed as ionized hydrogen peroxide
  Reductions of S. Typhimurium: 1.06 log CFU/piece and 1.06 ± 0.35^d log CFU/piece
[3]; [15]
  Populations of S. Typhimurium, treated: 4.23 ± 0.31^ab log CFU/piece
  Reductions of S. Typhimurium: 1.22 ± 0.28^d log CFU/piece
[3]; [16]
  Populations of S. Typhimurium, treated: 4.26 ± 0.71^ab log CFU/piece
  Reductions of S. Typhimurium: 1.20 ± 0.14^d log CFU/piece
[3]; [17]
  Populations of S. Typhimurium, treated: 4.71 ± 0.26^ab log CFU/piece
  Reductions of S. Typhimurium: 1.51 ± 0.34^cd log CFU/piece
[3]; [18]
  Populations of S. Typhimurium, treated: 4.31 ± 0.20^a log CFU/piece
  Reductions of S. Typhimurium: 1.85 ± 0.11^bc log CFU/piece
[3]; grape tomato stem scars, treatment time 60 s + 30 min dwell
  Populations of S. Typhimurium, treated: 3.85 ± 0.66^ab log CFU/piece
[3]; grape tomato stem scars, treatment time 60 s + 30 min dwell, listed as ionized hydrogen peroxide
  Reductions of S. Typhimurium: 2.16 log CFU/piece and 2.16 ± 0.43^b log CFU/piece
[3]; [19]
  Populations of S. Typhimurium, treated: 4.44 ± 0.25^a log CFU/piece
  Reductions of S. Typhimurium: 1.84 ± 0.43^b log CFU/piece
[3]; grape tomato surfaces, treatment time 8 s + 30 min dwell, ND: not detectable (detection limit 0.70 log CFU/piece)
  Populations of S. Typhimurium, treated: < 0.70 log CFU/piece
[3]; grape tomato surfaces, treatment time 8 s + 30 min dwell, listed as hydrogen peroxide (H2O2) with cold plasma
  Reductions of S. Typhimurium: more than 5 log CFU/piece
[3]; grape tomato surfaces, treatment time 8 s + 30 min dwell, listed as ionized hydrogen peroxide
  Reductions of S. Typhimurium: > 5 log CFU/piece
[3]; grape tomato surfaces, treatment time 10 s + 30 min dwell
  Reductions of S. Typhimurium: 5.65 ± 0.21^a log CFU/piece
[3]; produce other than smooth surfaces of tomatoes and apples, applied for a longer time period
  log reduction of Salmonella on other fresh produce items: ≤ 3.6 log
[3]; rough surfaces (tomato stem scars, cantaloupe rinds), similar treatment times
  log reductions of Salmonella on rough surfaces: 2.8-3.6 log
[3]; smooth surfaces (apples, tomatoes), 8-10 s treatment time + 30 min dwell time
  log reductions of Salmonella on smooth surfaces: greater than 5 log
